Patent US20240209028A1, “CNP COMPOUNDS” (priority 2022, published 2024)
Starred links: 1 amine or outer side, 2 acyl side, 3 side chain; linkers in the order of their positions; H or OH if unused. Positions of bridges follow the written chain, without caps; N, C: chain ends. Residues, ends and D or L forms follow the SMILES beside them. *: point of attachment. C18 diacid = O=C(O)CCCCCCCCCCCCCCCCC(=O)*; γGlu = O=C(O)[C@H](CCC(=O)[*:2])N[*:1]

Assay: Mouse growth study (tail and body length)
Assay type: in vivo, mice (C57BL/6J)
Settings: for body length higher compared to control group: 35 days; for change in tail length (from day 0) increased compared to control animals: after 35 days; for Tail length, Mean (%) change from day 0 / Body length, Mean (%) change from day 0: C57BL/6J mice
Experimental: The purpose of this study was to evaluate growth in mice after treatment with two doses of CNP compound.
Procedure: Mice (C57BL/6J, male, age 4 weeks; n=10) received daily subcutaneous injections of compound 9482 or vehicle for 35 days. Formulations were prepared according to the principles described in General Methods of Preparation—Method G (30 and 70 nmol/kg, 10 mL/kg; Formulation buffer 8 mM sodium phosphate, 250 mM glycerol, 0.007% polysorbate 20, pH 7.4). Body weight and tail and body length were measured weekly throughout the study. The increase in growth was expressed as percentage change from day (mean (SD)).
In Table 28, increase in tail length is expressed as percentage change from day 0 (mean (SD)). Statistically significant differences are indicated compared to control group (two-way ANOVA).
In Table 29, increase in body length is expressed as percentage change from day 0 (mean (SD)). Statistically significant differences are indicated compared to control group (two-way ANOVA).

[1] = both 30 and 70 nmol/kg daily s.c., p<0.05

## CC[C@H](C)[C@@H]1NC(=O)[C@H](CCCNC(=N)N)NC(=O)[C@H](CC(=O)O)NC(=O)[C@H](CC(C)C)NC(=O)[C@@H]2CCCN2C(=O)[C@H](CC(C)C)NC(=O)CNC(=O)[C@H](Cc2ccccc2)NC(=O)[C@@H](NC(=O)CNC(=O)[C@H](CO)NC(=O)[C@H](CO)NC(=O)[C@H](CC(C)C)NC(=O)CNC(=O)[C@H](CCCCN)NC(=O)[C@H](CCCCN)NC(=O)[C@H](CCC(N)=O)NC(=O)[C@H](C)NC(=O)CNC(=O)[C@H](CCCCN)NC(=O)[C@H](Cc2ccc(O)cc2)NC(=O)[C@H](CCCCN)NC(=O)[C@H](CCCNC(=N)N)NC(=O)[C@H](C)NC(=O)[C@H](CCC(N)=O)NC(=O)[C@@H]2CCCN2C(=O)[C@H](Cc2c[nH]cn2)NC(=O)[C@H](CCC(=O)O)NC(=O)[C@H](CCC(N)=O)NC(=O)CC[C@H](NC(=O)CC[C@H](NC(=O)CC[C@H](NC(=O)CC[C@H](NC(=O)CC[C@H](NC(=O)CCCCCCCCCCCCCCCCC(=O)O)C(=O)O)C(=O)O)C(=O)O)C(=O)O)C(=O)O)CSSC[C@@H](C(=O)O)NC(=O)CNC(=O)[C@H](CC(C)C)NC(=O)CNC(=O)[C@H](CO)NC(=O)[C@H](CC(C)C)NC(=O)[C@H](CO)NC(=O)CNC1=O [compound 9482] ({C18 diacid-γGlu-γGlu-γGlu-γGlu-γGlu}-QEHPQARKYKGAQKKGLSSGCFGLPLDRIGSLSGLGC-OH; disulfide 21-37)
30 nmol/kg daily s.c.
  body length higher compared to control group: 30%
  change in tail length (from day 0) increased compared to control animals: 45%
30 nmol/kg daily s.c., day 7
  Tail length, Mean (%) change from day 0: 11.8%
30 nmol/kg daily s.c., day 8
  Body length, Mean (%) change from day 0: 10.2%
30 nmol/kg daily s.c., day 14
  Tail length, Mean (%) change from day 0: 16.0%
30 nmol/kg daily s.c., day 18
  Body length, Mean (%) change from day 0: 17.5%
30 nmol/kg daily s.c., day 21
  Tail length, Mean (%) change from day 0: 24.1%
30 nmol/kg daily s.c., day 25
  Body length, Mean (%) change from day 0: 22.5%
30 nmol/kg daily s.c., day 28
  Tail length, Mean (%) change from day 0: 25.6%
30 nmol/kg daily s.c., day 35
  Body length, Mean (%) change from day 0: 27.4%
  Tail length, Mean (%) change from day 0: 28.5%
70 nmol/kg daily s.c.
  body length higher compared to control group: 67%
  change in tail length (from day 0) increased compared to control animals: 83%
70 nmol/kg daily s.c., day 7
  Tail length, Mean (%) change from day 0: 14.3%
70 nmol/kg daily s.c., day 8
  Body length, Mean (%) change from day 0: 12.8%
70 nmol/kg daily s.c., day 14
  Tail length, Mean (%) change from day 0: 20.3%
70 nmol/kg daily s.c., day 18
  Body length, Mean (%) change from day 0: 21.5%
70 nmol/kg daily s.c., day 21
  Tail length, Mean (%) change from day 0: 29.0%
70 nmol/kg daily s.c., day 25
  Body length, Mean (%) change from day 0: 29.0%
70 nmol/kg daily s.c., day 28
  Tail length, Mean (%) change from day 0: 32.0%
70 nmol/kg daily s.c., day 35
  Body length, Mean (%) change from day 0: 35.3%
  Tail length, Mean (%) change from day 0: 35.7%
[1]
  time after which body length was significantly increased compared to control: 18 days
  time after which tail length was significantly increased compared to control: 7 days
